Assay results from the NIST ThermoML archive (doi:10.1016/j.jct.2009.03.009).

Experiments:
[1] = refractive index (Na D-line) (dimensionless); xn = mol fraction of the nth substance listed; settings: 313.15 K, 101 kPa, Liquid, Standard Abbe refractometry
[2] = xn = mol fraction of the nth substance listed; settings: 313.15 K, 101 kPa, Liquid; for speed of sound: Sing-around technique in a fixed-path interferometer; for mass density: Vibrating tube method

c1ccccc1 [benzene] + CCCCCC
Settings	mass density, [2] [kg/m3]	refractive index, [1]	speed of sound, [2] [m/s]
x2 = 0	857.4	1.48752	1230
x2 = 0.0378	845.3	1.48075	1214.8
x2 = 0.1009	825.8	1.46941	1191.1
x2 = 0.1986	797.9	1.45313	1158.5
x2 = 0.2979	772.2	1.43818	1129.8
x2 = 0.402	747.7	1.42416	1104.3
x2 = 0.6024	706.3	1.40043	1063.9
x2 = 0.7014	688.2	1.39011	1047.7
x2 = 0.801	671.4	1.38019	1033.2
x2 = 0.9083	654.9	1.37148	1020.2
x2 = 0.9464	649.2	1.36837	1015.9

c1ccccc1 [benzene] + CCCCCCC
Settings	mass density, [2] [kg/m3]	refractive index, [1]	speed of sound, [2] [m/s]
x2 = 0	857.4	1.48752	1230
x2 = 0.0511	840.8	1.47784	1210.9
x2 = 0.1025	825.2	1.46808	1193.3
x2 = 0.1998	798.6	1.45273	1165.5
x2 = 0.2987	775	1.43808	1142.8
x2 = 0.3972	754.3	1.42586	1124.4
x2 = 0.5013	734.9	1.4148	1108.9
x2 = 0.5998	718.5	1.40552	1096.8
x2 = 0.698	703.7	1.39777	1086.4
x2 = 0.8043	689.4	1.38985	1077.8
x2 = 0.9013	677.7	1.38322	1071.6
x2 = 0.9518	671.9	1.38025	1068.8

c1ccccc1 [benzene] + CCCCCCCC
x2 = 0
Settings	mass density [kg/m3]	refractive index	speed of sound [m/s]
[1]	–	1.48752	–
[2]	857.4	–	1230

c1ccccc1 [benzene] + CCCCCCCCC
x2 = 0
Settings	mass density [kg/m3]	refractive index	speed of sound [m/s]
[1]	–	1.48752	–
[2]	857.4	–	1230

CCc1ccccc1 [ethylbenzene] + CCCCCC
Settings	mass density, [2] [kg/m3]	refractive index, [1]	speed of sound, [2] [m/s]
x2 = 0	849.2	1.48426	1256.9
x2 = 0.0465	839.4	1.47929	1243.8
x2 = 0.0771	832.8	1.47548	1235
x2 = 0.201	806.5	1.46016	1200.8
x2 = 0.3015	785.2	1.44756	1173.9
x2 = 0.399	764.7	1.43582	1148.5
x2 = 0.5092	741.7	1.42251	1121.1
x2 = 0.601	722.6	1.41135	1098.9
x2 = 0.7012	702	1.39924	1075.7
x2 = 0.7999	681.9	1.38766	1054.1
x2 = 0.8993	661.7	1.3759	1031.8
x2 = 0.9534	650.8	1.36962	1020.3

CCc1ccccc1 [ethylbenzene] + CCCCCCC
Settings	mass density, [2] [kg/m3]	refractive index, [1]	speed of sound, [2] [m/s]
x2 = 0	849.2	1.48426	1256.9
x2 = 0.0494	838.5	1.47846	1243.9
x2 = 0.1039	826.9	1.47131	1229.8
x2 = 0.2025	806.7	1.4594	1205.9
x2 = 0.3022	786.8	1.44788	1183.7
x2 = 0.4038	767.2	1.43628	1162.6
x2 = 0.5006	749.3	1.42574	1144.6
x2 = 0.6003	731.6	1.41536	1126.9
x2 = 0.7014	714.3	1.40513	1109.8
x2 = 0.8048	697.3	1.39516	1094.8
x2 = 0.9028	681.7	1.38607	1079.9
